Data published in US7776862B2, “Pyridyl and phenyl substituted piperazine-piperidines with CXCR3 antagonist activity” (Schering Corporation, priority 2005, dated 2010).

Target: T1, human CXCR3 (N-delta 4) (Homo sapiens, UniProt P49682)
T1 construct: CD8 leader; Flag tag; expressed in transfected cells; membranes used
T1 sequence (P49682 5-368 limits assumed): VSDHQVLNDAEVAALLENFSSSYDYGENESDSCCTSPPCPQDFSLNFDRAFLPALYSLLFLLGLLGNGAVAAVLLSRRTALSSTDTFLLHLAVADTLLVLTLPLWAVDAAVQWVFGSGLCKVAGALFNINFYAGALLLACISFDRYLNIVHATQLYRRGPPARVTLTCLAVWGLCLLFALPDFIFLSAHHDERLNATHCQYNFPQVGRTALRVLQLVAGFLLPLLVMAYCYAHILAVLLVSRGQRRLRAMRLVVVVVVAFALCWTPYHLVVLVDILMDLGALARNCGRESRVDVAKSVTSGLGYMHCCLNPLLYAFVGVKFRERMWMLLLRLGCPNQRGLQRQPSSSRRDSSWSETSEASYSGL
Experiment: Human CXCR3 (N-delta 4) scintillation proximity assay (SPA), [125I] IP-10 binding
Details: IC50 rating; Ba/F3-hCXCR3 (N-delta 4) membranes, 25 pM [125I] IP-10
Outline: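 IP-10 and compound titrations added together. The receptor source was SPA beads bearing membranes from Ba/F3 cells transfected with human CXCR3 (N-delta 4) carrying a CD8 leader and Flag tag.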

SMILES | IC50 [nM]
N#Cc1ccc(CN2CCC(N3CCN(c4ncc(C(=O)NCc5ccc(F)c(F)c5)cc4Cl)CC3)CC2)cc1 [compound 129] | 25 to 100
CNC(=O)c1cnc(N2CCN(C3CCN(Cc4cccc(C)c4)CC3)[C@@H](C)C2)c(Cl)c1 [compound 334] | > 100
O=C(NCC(c1ccccc1)c1ccccc1)c1cnc(N2CCN(C3CCN(Cc4ccc(Cl)cc4)CC3)CC2)c(Br)c1 [compound 178] | > 100
O=C(NCc1ccc(Cl)cc1F)c1cnc(N2CCN(C3CCN(Cc4ccc(Br)cc4)CC3)CC2)c(Cl)c1 [compound 105] | 25 to 100
C=CCNc1c(C(N)=O)cnc(N2CCN(C3CCN(Cc4ccc(Cl)cc4F)CC3)[C@@H](CC)C2)c1Cl [compound 357] | > 100
CC[C@H]1CN(c2ncc(CNS(C)(=O)=O)cc2Cl)CCN1C1CCN(Cc2ccc(Br)cc2F)CC1 [compound 378] | < 25
O=C(NCc1ccc(C(F)(F)F)cc1)c1cnc(N2CCN(C3CCN(Cc4ccc(Cl)c(F)c4)CC3)CC2)c(Cl)c1 [compound 73] | > 100
CC[C@H]1CN(c2ncc(C(C)N)cc2Cl)CCN1C1CCN(Cc2ccc(Cl)cc2F)CC1 (stereo partly shown) [compound 450] | > 100
O=C(NCc1ccc(F)c(F)c1)c1cnc(N2CCN(C3CCN(Cc4ccc(Cl)cc4)CC3)CC2)c(Br)c1 [compound 253] | < 25
O=C(NCc1ccccc1)c1cnc(N2CCN(C3CCN(Cc4ccc(F)c(F)c4)CC3)CC2)c(Cl)c1 [compound 53] | > 100
O=C(NCc1ccc(F)c(F)c1)c1cnc(N2CCN(C3CCN(Cc4ccc(Cl)cc4Cl)CC3)CC2)c(Cl)c1 [compound 25] | > 100
O=C(NCC1COc2ccccc2O1)c1cnc(N2CCN(C3CCN(Cc4ccc(Cl)cc4)CC3)CC2)c(Br)c1 (stereo not shown) [compound 176] | > 100
O=C(NCc1ccc(Cl)c(Cl)c1)c1cnc(N2CCN(C3CCN(Cc4ccc(F)cc4)CC3)CC2)c(Cl)c1 [compound 135] | 25 to 100
O=C(NCc1cccc(F)c1)c1cnc(N2CCN(C3CCN(Cc4ccc(Br)cc4)CC3)CC2)c(Cl)c1 [compound 100] | 25 to 100
CC[C@H]1CN(c2ncc(COC(=O)Nc3ccc(F)cc3)cc2Cl)CCN1C1CCN(Cc2ccc(Cl)cc2F)CC1 [compound 420] | 25 to 100
COc1ccc(CNC(=O)c2cnc(N3CCN(C4CCN(Cc5ccc(C#N)cc5)CC4)CC3)c(Cl)c2)cc1 [compound 345] | > 100
CNC(=O)c1cnc(N2CCN(C3CCN(Cc4c(C)cccc4C)CC3)[C@@H](C)C2)c(Cl)c1 [compound 360] | > 100
CNC(=O)c1cnc(N2CCN(C3CCN(Cc4ccc(C(F)(F)F)cc4)CC3)[C@@H](C)C2)c(Cl)c1 [compound 301] | 25 to 100
O=C(NCc1ccc(F)c(F)c1)c1cnc(N2CCN(C3CCN(Cc4ccc([N+](=O)[O-])cc4)CC3)CC2)c(Br)c1 [compound 164] | < 25
CC[C@H]1CN(c2ncc(CO)cc2Cl)CCN1C1CCN(Cc2ccc(Br)cc2F)CC1 [compound 383] | < 25
CCNC(=O)c1cnc(N2CCN(C3CCN(C(=O)c4ccc(Cl)cc4)CC3)[C@@H](C(C)C)C2)c(Cl)c1 [compound 211] | > 100
CC[C@H]1CN(c2ncc(C(=O)NCc3ccc(F)c(F)c3)cc2Cl)CCN1C1CCN(Cc2ccc(Cl)cc2)CC1 [compound 221] | < 25
CC[C@H]1CN(c2ncc(CN)cc2Cl)CCN1C1CCN(Cc2ccc(Cl)cc2)CC1 [compound 413] | 25 to 100
CNC(=O)c1cnc(N2CCN(C3(C)CCN(Cc4ccc(Cl)cc4)CC3)[C@@H](C)C2)c(Cl)c1 [compound 205] | > 100
O=C(NCCOc1ccccc1)c1cnc(N2CCN(C3CCN(Cc4ccc([N+](=O)[O-])cc4)CC3)CC2)c(Cl)c1 [compound 112] | 25 to 100
N#Cc1ccc(CN2CCC(N3CCN(c4ncc(C(=O)NCc5ccc(Cl)c(Cl)c5)cc4Cl)CC3)CC2)cc1 [compound 317] | 25 to 100
O=C(NCc1cccc(F)c1)c1cnc(N2CCN(C3CCN(Cc4ccc(Cl)cc4)CC3)CC2)c(Cl)c1 [compound 95] | 25 to 100

The next lines start with the values.

IC50 [nM] | SMILES
> 100 | O=C(NCc1ccc(F)c(F)c1)c1cnc(N2CC3CC2CN3C2CCN(Cc3ccc(Cl)cc3)CC2)c(Cl)c1 (stereo not shown) [compound 170]
25 to 100 | O=C(NCc1ccc(Cl)cc1)c1cnc(N2CCN(C3CCN(Cc4ccc(F)c(F)c4)CC3)CC2)c(Cl)c1 [compound 157]
> 100 | N#Cc1ccc(C(=O)N2CCC(N3CCN(c4ncc(C(=O)NCc5ccc(Br)cc5)cc4Cl)CC3)CC2)cc1 [compound 68]
> 100 | O=C(NCc1ccc(Cl)cc1F)c1cnc(N2CCN(C3CCN(Cc4ccc(Br)cc4F)CC3)CC2)c(Cl)c1 [compound 27]
> 100 | O=C(NCc1ccc(Br)cc1)c1cnc(N2CCN(C3CCN(Cc4ccc(F)cc4F)CC3)CC2)c(Cl)c1 [compound 67]
25 to 100 | CC[C@H]1CN(c2ncc(CNS(=O)(=O)CC(F)(F)F)cc2Cl)CCN1C1CCN(Cc2ccc(Cl)cc2F)CC1 [compound 416]
> 100 | O=C(NCc1ccc(F)cc1F)c1cnc(N2CCN(C3CCN(Cc4ccc(F)cc4)CC3)CC2)c(Cl)c1 [compound 58]
> 100 | O=C(NCc1ccc(F)cc1)c1cnc(N2CCN(C3CCN(Cc4ccc(Br)cc4F)CC3)CC2)c(Cl)c1 [compound 4]
> 100 | O=C(NCCOc1ccccc1)c1cnc(N2CCN(C3CCN(Cc4ccc(F)c(F)c4)CC3)CC2)c(Cl)c1 [compound 35]
> 100 | CC[C@H]1CN(c2ncc(C(=O)N(C)OC)cc2Cl)CCN1C1CCN(Cc2ccc(Cl)cc2F)CC1 [compound 343]
> 100 | O=C(NCc1ccccc1)c1cnc(N2CCN(C3CCN(Cc4ccc(Br)cc4)CC3)CC2)c(Cl)c1 [compound 39]
< 25 | CCNC(=O)c1cnc(N2C[C@H](CC)N(C3CCN(Cc4ccc(Cl)cc4)CC3)C[C@H]2C)c(Cl)c1 [compound 214]
< 25 | CCNC(=O)c1cnc(N2CCN(C3CCN(C(=O)c4ccc(Cl)cc4)CC3)[C@@H](CC)C2)c(Cl)c1 [compound 246]
> 100 | CC(c1ccc([N+](=O)[O-])cc1)N1CCC(N2CCN(c3ncc(C(=O)NCc4ccc(F)c(F)c4)cc3Cl)CC2)CC1 (stereo not shown) [compound 76]
< 25 | CC[C@H]1CN(c2ncc(CN/C(N)=N\C#N)cc2Cl)CCN1C1CCN(Cc2ccc(Cl)cc2F)CC1 [compound 389]
> 100 | COc1ccc(CN2CCC(N3CCN(c4ncc(C(=O)NCc5cccc(F)c5)cc4Cl)CC3)CC2)cc1 [compound 30]
25 to 100 | COc1ccc(CN2CCC(N3CCN(c4ncc(C(=O)NCc5ccc(Cl)c(Cl)c5)cc4Br)CC3)CC2)cc1 [compound 276]
< 25 | CCNC(=O)c1cnc(N2CCN(C3CCN(C(C)c4ccc(Cl)cc4)CC3)[C@@H](C)C2)c(Cl)c1 (stereo partly shown) [compound 239]
< 25 | CC[C@H]1CN(c2ncc(C(=O)NC3CC3)cc2C)CCN1C1CCN(C(=O)c2ccc(Cl)cc2)CC1 [compound 461]

IC50 [nM] | SMILES
> 100 | O=C(NC1CCCC1)c1cnc(N2CCN(C3CCN(Cc4ccc(Cl)cc4)CC3)CC2)c(Cl)c1 [compound 168]
25 to 100 | N#Cc1ccc(C(=O)N2CCC(N3CCN(c4ncc(C(=O)NCC5CCCCC5)cc4Br)CC3)CC2)cc1 [compound 193]
< 25 | C[C@H]1CN(c2ncc(C(=O)NCc3ccc(F)c(F)c3)cc2Cl)CCN1C1CCN(Cc2ccc(C#N)cc2)CC1 [compound 234]
25 to 100 | CC[C@H]1CN(c2ncc(C(=O)c3ncco3)cc2Cl)CCN1C1CCN(Cc2ccc(Cl)cc2F)CC1 [compound 428]
> 100 | N#Cc1ccc(C(=O)N2CCC(N3CCN(c4ncc(C(=O)NCc5ccc(Cl)c(Cl)c5)cc4Cl)CC3)CC2)cc1 [compound 64]
> 100 | O=C(NCCOc1ccccc1)c1cnc(N2CCN(C3CCN(Cc4ccc(Cl)cc4Cl)CC3)CC2)c(Cl)c1 [compound 38]
25 to 100 | C[C@@H]1CN(c2ncc(C(=O)NCC3CCCCC3)cc2Cl)CCN1C1CCN(Cc2ccc(C#N)cc2)CC1 [compound 300]
> 100 | COC(=O)c1cnc(N2CCN(C3CCN(Cc4ccc(F)cc4)CC3)[C@@H](C)C2)c(Cl)c1 [compound 449]
> 100 | O=C(NCc1ccc(F)cc1)c1cnc(N2CCN(C3CCN(Cc4ccc(Cl)cc4Cl)CC3)CC2)c(Cl)c1 [compound 7]
25 to 100 | CNC(=O)c1cnc(N2CCN(C3CCN(Cc4ccc(Cl)cc4)CC3C)CC2)c(Cl)c1 (stereo not shown) [compound 302]
> 100 | O=C(NC1CCCC1)c1cnc(N2CCN(C3CCN(Cc4ccc([N+](=O)[O-])cc4)CC3)CC2)c(Cl)c1 [compound 18]
> 100 | CC[C@H]1CN(c2ncc(C(=O)OC)cc2Cl)CCN1C1CCN(Cc2ccc(Br)cc2F)CC1 [compound 435]
< 25 | C[C@H]1CN(c2ncc(C(=O)Nc3ccc(F)c(F)c3)cc2Cl)CCN1C1CCN(Cc2ccc(Cl)cc2)CC1 [compound 261]
25 to 100 | CNC(=O)c1cnc(N2CCN(C3CCN([C@@H]4CCc5cc(Cl)ccc54)CC3)[C@@H](C)C2)c(Cl)c1 [compound 271]
25 to 100 | CCOC(CNC(=N)c1cnc(N2CCN(C3CCN(Cc4ccc(Cl)cc4F)CC3)[C@@H](CC)C2)c(Cl)c1)OCC [compound 422]
> 100 | CCCNC(=O)c1cnc(N2CCN(C3CCN(Cc4ccc(Cl)cc4)CC3)CC2)c(Cl)c1 [compound 192]
> 100 | O=C(NCc1ccc(F)c(F)c1)c1cnc(N2CCN(C3CCN(Cc4ccc(Br)cc4F)CC3)CC2)c(Cl)c1 [compound 62]
> 100 | O=C(NCCOc1ccccc1)c1cnc(N2CCN(C3CCN(Cc4ccc(Br)cc4F)CC3)CC2)c(Cl)c1 [compound 23]
